Results: PMC11521914 (Frontiers in Pharmacology, 2024)

Experiments:
[1] = test system: normoglycemic (healthy) rats; assay: Insulin tolerance tests (insulin sensitivity assessment); type: in vivo, Wistar rats; settings: healthy rats fasted 4 h
Protocol: (§1) All procedures carried out on animals were approved by the Academic Ethics and Scientific Responsibility Commission (CEARC) of the School of Sciences, UNAM with protocol numbers PI_2021_08_23, PI_2022_21_05b, and PI_2022_22_07. Wistar rats of both sexes, 8 weeks old, were acquired and maintained under standard bioterium conditions (25°C, 55% humidity and 12:12 h light and dark photoperiod) with water and food ad libitum. Treatment administration (vehicle and samples) was performed orally with the help of an esophageal cannula. Blood samples were obtained from the tail vein and glucose measurements were performed in duplicate using Accu-Chek® Active glucometers.
First, basal glucose was determined and, immediately after, treatments were given. Forty-5 min later, glucose levels were measured and then isophane insulin (Aurax®; 0.5 U/kg b. w.) was administered intraperitoneally. Glucose levels were monitored at minutes 15, 30, 60, and 120 after insulin injection. In total, 24 rats were divided into four groups (n = 6 each group): 1. Control, which received physiological solution (C); 2. […]
Where Tx is the value of glucose or insulin at each time and T0 is the baseline value. Next, AUC were calculated and compared by applying t tests for intergroup comparisons and repeated measures ANOVA followed by Dunnett post hoc tests for intragroup comparisons. […]

[2] = target: T1, Glucose-6-phosphatase enzyme (G6Pase) (Rattus norvegicus, UniProt P43428); assay: Glucose-6-phosphatase (G6Pase) enzyme activity inhibition assay; type: biochemical; settings: rat liver microsome-enriched supernatant, 20 mM G6P
T1 construct: dilutions of the supernatant enriched with microsomes were prepared with buffer; from tissue; host or cells: rat liver, microsome-enriched fraction
T1 sequence (P43428 1-357): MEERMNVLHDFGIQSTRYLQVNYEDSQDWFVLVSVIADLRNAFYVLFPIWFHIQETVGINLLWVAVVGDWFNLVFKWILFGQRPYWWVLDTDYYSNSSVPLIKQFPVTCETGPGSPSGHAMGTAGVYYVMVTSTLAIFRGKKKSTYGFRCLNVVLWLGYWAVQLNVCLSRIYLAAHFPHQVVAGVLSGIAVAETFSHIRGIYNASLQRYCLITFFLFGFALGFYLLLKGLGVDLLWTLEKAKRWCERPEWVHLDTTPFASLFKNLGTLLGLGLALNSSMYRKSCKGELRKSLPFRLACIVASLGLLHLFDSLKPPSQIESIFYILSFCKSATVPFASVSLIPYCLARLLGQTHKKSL
Protocol: (§2) Livers were removed from 18-h fasted healthy rats (3), which were previously anesthetized with 5% isoflurane ([Unit for Laboratory Animal Medicine, 2023]). Then, they were homogenized in buffer (250 mM sucrose, 1 mM EDTA, 5 mM HEPES, pH 7.4), filtered, and subsequently subjected to differential centrifugation as described by [Andrade-Cetto and Cárdenas-Vázquez (2010)]. Both the microsome-enriched supernatant (containing the enzyme complex glucose-6-phosphatase) and the cytosolic supernatant (containing the enzyme fructose-1,6-bisphosphatase) were collected and stored at −40°C until use.
Colorimetric assays were carried out to detect the formation of a phosphomolybdate complex, which is proportional to the activity of the G6Pase enzyme complex. The reaction turns blue when G6Pase releases the inorganic phosphate and therefore the lower the color intensity, the greater the inhibition ([Arion, 1989]). […] Finally, the absorbance was measured at 830 nm.
(§3) Finally, for in vitro experiments, absorbance values were transformed into activity percentages following the next formula: Enzyme activity %=AS−ASB/AC−ACB×100
(§4) Where A S is the absorbance of the inhibitor sample at a specific concentration, A SB is the blank of the inhibitor sample, A C is the highest absorbance (without inhibitor), and A CB is the blank of the highest absorbance. […]

[3] = target: T2, Fructose-1,6-bisphosphatase enzyme (FBPase) (Rattus norvegicus, UniProt P19112); assay: Fructose-1,6-bisphosphatase (FBPase) enzyme activity inhibition assay; type: biochemical; settings: rat liver cytosolic supernatant, 0.1 mM FBP
T2 construct: The reaction was started by adding the cytosolic supernatant previously diluted in buffer without substrate; from tissue; host or cells: rat liver, cytosolic supernatant
T2 sequence (P19112 1-363): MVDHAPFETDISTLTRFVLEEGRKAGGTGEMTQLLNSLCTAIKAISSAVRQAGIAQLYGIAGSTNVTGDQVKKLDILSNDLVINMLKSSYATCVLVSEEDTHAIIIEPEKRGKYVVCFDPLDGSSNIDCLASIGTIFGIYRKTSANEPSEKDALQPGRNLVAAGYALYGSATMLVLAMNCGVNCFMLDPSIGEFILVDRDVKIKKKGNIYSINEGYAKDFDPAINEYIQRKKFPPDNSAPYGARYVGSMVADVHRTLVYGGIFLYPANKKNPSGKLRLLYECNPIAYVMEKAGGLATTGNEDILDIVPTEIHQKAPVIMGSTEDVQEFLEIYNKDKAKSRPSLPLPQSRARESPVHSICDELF
Protocol: as §2
Colorimetric assays were performed to detect the formation of a phosphomolybdate-malachite green complex with the inorganic phosphate released by the enzyme FBPase. […]
The assays were carried out with substrate-enriched buffer (5 µM EDTA, 5 mM MgCl2, 50 mM Tris-HCl, 0.1 mM FBP, pH 7.2) to which the inhibitors were added at different concentrations (AMP, EtOH-WCg, or junceic acid). […] Finally, the absorbance was measured at 630 nm.
as §3, §4

[4] = test system: STZ-NA-hyperglycemic rats; assay: Fasting glucose and insulin levels, hyperglycemic rats; type: in vivo, Wistar rats; settings: hyperglycemic rats fasted 12 h, 2 h; glibenclamide 5 mg/kg, EtOH-WCg 30 mg/kg, junceic acid 5.6 mg/kg b.w.
Protocol: as §1, with “glucometers. […]” for “glucometers.”
(§5) Normoglycemic (healthy) and hyperglycemic rats were used after 12 h of fasting selecting those with blood glucose levels between 90 and 110 mg/dL and 180–220 mg/dL, respectively. Before the administration of the treatment and every 30 min for 2 h, glucose levels were determined and additional blood samples (approximately 300 µL) were obtained, which were immediately centrifuged at 10,000 g for 10 min. […] Insulin quantification was performed using the immunoassay Rat/Mouse Insulin ELISA kit EZRMI-13KEMD Millipore/Merck ([Espinoza-Hernández et al., 2021]). […]
(§6) Data are presented as mean ± standard error of the mean (SEM). […] Differences detected with p < 0.05 were considered statistically significant. […]

[5] = test system: normoglycemic (healthy) rats; assay: Fasting glucose and insulin levels, normoglycemic rats; type: in vivo, Wistar rats; settings: normoglycemic rats fasted 12 h, 2 h, glibenclamide 5 mg/kg
Protocol: as §1, §5, §6

[6] = test system: STZ-NA-hyperglycemic rats; assay: Evaluation of the hypoglycemic effect (acute glucose curves); type: in vivo, Wistar rats
Protocol: as §1
In summary hyperglycemia was induced as described by [Masiello et al. (1998)], rats fasted for 12 h were administered intraperitoneally with 150 mg/kg b. w. of NA and, 15 min later, 65 mg/kg b. w. of STZ was injected intravenously. After 2 weeks, animals with blood glucose values above 180 mg/dL were selected to perform the tests described below.
Basal glucose levels were assessed before giving the treatments. Immediately after the administration of treatments, glucose levels were monitored every hour for 3 h ([Espinoza-Hernández et al., 2021]). Thirty rats fasted for 4 h were divided into five groups (n = 6 each group): 1. Normoglycemic Control (N), administered with physiological solution (vehicle); 2. Hyperglycemic Control (H), which received physiological solution; 3. Hyperglycemic Control + glibenclamide, which was administered with 5 mg/kg b. w. (Aurax®) (HGli) ([Berridge et al., 1992]); 4. Hyperglycemic Group + EtOH-WCg, which received 30 mg/kg b. w. (HCg); and 5. Hyperglycemic Group + junceic acid, administered with 5.6 mg/kg b. w. (HJa).

[7] = test system: normoglycemic (healthy) rats; assay: Postprandial glucose and insulin levels (glucose tolerance test), normoglycemic rats; type: in vivo, Wistar rats; settings: glucose load 2 g/kg
Protocol: as §1, §5, §6

[8] = test system: STZ-NA-hyperglycemic rats; assay: Postprandial glucose and insulin levels (glucose tolerance test), hyperglycemic rats; type: in vivo, Wistar rats; settings: glucose load 2 g/kg
Protocol: as §1, with “glucometers. […]” for “glucometers.”
as §5, §6

In the case of CCc1ccc(CCOc2ccc(CC3SC(=O)NC3=O)cc2)nc1 (centres unmarked) [pioglitazone], the “inverse AUC and KITT analyzes compared with control (C)” value ([1]; insulin tolerance test, 120 min) is reported as “eliminated more glucose throughout the experiment at a higher removal rate than C” and the “potentiation of the glucose-lowering effect of insulin compared with control (C)” value ([1]; isophane insulin 0.5 U/kg i.p. 45 min after treatment, pioglitazone 20 mg/kg, EtOH-WCg 30 mg/kg, junceic acid 5.6 mg/kg b.w.) is reported as “exacerbated the glucose-lowering effect of insulin”.
For O=C(/C=C/c1ccc(O)c(O)c1)O[C@@H]1C[C@](O)(C(=O)O)C[C@@H](O)[C@H]1O [Clorogenic acid, chlorogenic acid], the IC50 [2] was 346 µM and the Inhibition % [2] was 83%.
With Nc1ncnc2c1ncn2[C@@H]1O[C@H](COP(=O)(O)O)[C@@H](O)[C@H]1O.O [AMP, adenosine 5′-monophosphate monohydrate] the IC50 [3] was 95 µM and the Inhibition % [3] was 96%.
For COc1ccc(Cl)cc1C(=O)NCCc1ccc(S(=O)(=O)NC(=O)NC2CCCCC2)cc1 [glibenclamide], the “effect on blood glucose in fasting” value [4] was “significant hypoglycemic effect”, the “effect on plasma insulin in fasting” value [4] was “increase in plasma insulin” and the “effect on plasma insulin in fasting” value ([5]; EtOH-WCg 30 mg/kg b.w.) was “increase in plasma insulin”. The “effect on blood glucose in fasting” value ([5]; EtOH-WCg 30 mg/kg, junceic acid 5.6 mg/kg b.w.) was “significant hypoglycemic effect”, the “hypoglycemic effect compared with the hyperglycemic control group (H)” value ([6]; 60 min after administration, maintained throughout the experiment, p < 0.05) was “significant hypoglycemic effect” and the “glucose decrease at the end of the study” value ([6]; STZ-NA-hyperglycemic rats fasted 4 h, oral, 3 h curve, glibenclamide 5 mg/kg, EtOH-WCg 30 mg/kg, junceic acid 5.6 mg/kg b.w.) was 57%. The “decrease of total blood glucose (AUC) compared with control (H)” value ([6]; STZ-NA-hyperglycemic rats fasted 4 h, oral, glibenclamide 5 mg/kg, EtOH-WCg 30 mg/kg, junceic acid 5.6 mg/kg b.w.) was 65%.
In the case of CCOc1cc(CC(=O)N[C@@H](CC(C)C)c2ccccc2N2CCCCC2)ccc1C(=O)O [repaglinide], the “increase of insulin levels” value ([7]; healthy rats, at 30 min, repaglinide 1 mg/kg b.w.) is reported as “more than 500%”, the “effect on the hyperglycemic peak after the glucose load” value ([7]; normoglycemic rats, repaglinide 1 mg/kg, EtOH-WCg 30 mg/kg, junceic acid 5.6 mg/kg b.w.) is reported as “significantly decreased the hyperglycemic peak” and the “increase of insulin levels” value ([8]; at 30 min, repaglinide 1 mg/kg b.w.) is reported as “under 25%”. The “effect on postprandial hyperglycemia after the glucose load” value ([8]; repaglinide 1 mg/kg, EtOH-WCg 30 mg/kg, junceic acid 5.6 mg/kg b.w.) was “significantly decreased the hyperglycemic peak”.
